Results on ten molecules are retold here after patent publication US8865771B2, “Amides useful as inhibitors of voltage-gated sodium channels” (Vertex Pharmaceuticals Incorporated, priority 2007, dated 2014).

Like-named read-outs stand apart in the source and are kept apart here.

Assay [1] has as its target T1, NaV1.8 (Homo sapiens, UniProt Q9Y5Y9). Put plainly: NaV inhibition, optical membrane potential assay (analogous mode). The class given is cell-based. Particulars: activity against NaV 1.8 channel. Here is the method: (§1) Compounds of the invention are useful as antagonists of voltage-gated sodium ion channels. Antagonist properties of test compounds were assessed as follows. Cells expressing the NaV of interest were placed into microtiter plates. After an incubation period, the cells were stained with fluorescent dyes sensitive to the transmembrane potential. The test compounds were added to the microtiter plate. The cells were stimulated with either a chemical or electrical means to evoke a NaV dependent membrane potential change from unblocked channels, which was detected and measured with trans-membrane potential-sensitive dyes. Antagonists were detected as a decreased membrane potential response to the stimulus. The optical membrane potential assay utilized voltage-sensitive FRET sensors described by Gonzalez and Tsien (See Gonzalez, J. E. and R. Y. Tsien (1995) “Voltage sensing by fluorescence resonance energy transfer in single cells” Biophys J 69(4): 1272-80, and Gonzalez, J. E. and R. Y. Tsien (1997) “Improved indicators of cell membrane potential that use fluorescence resonance energy transfer” Chem Biol 4(4): 269-77) in combination with instrumentation for measuring fluorescence changes such as the Voltage/Ion Probe Reader (VIPR®) (See Gonzalez, J. E., K. Oades, et al. (1999) “Cell-based assays and instrumentation for screening ion-channel targets” Drug Discov Today 4(9): 431-439).
(§2) C) VIPR® Optical Membrane Potential Assay Method with Electrical Stimulation
(§3) The following is an example of how NaV1.3 inhibition activity is measured using the optical membrane potential method#2. Other subtypes are performed in an analogous mode in a cell line expressing the NaV of interest.
(§4) The electrical stimulation instrument and methods of use are described in ION Channel Assay Methods PCT/US01/21652, herein incorporated by reference. The instrument comprises a microtiter plate handler, an optical system for exciting the coumarin dye while simultaneously recording the coumarin and oxonol emissions, a waveform generator, a current- or voltage-controlled amplifier, and a device for inserting electrodes in well. Under integrated computer control, this instrument passes user-programmed electrical stimulus protocols to cells within the wells of the microtiter plate.
(§5) Assay Protocol • 1. Insert or use electrodes into each well to be assayed. • 2. Use the current-controlled amplifier to deliver stimulation wave pulses for 3 s. Two seconds of pre-stimulus recording are performed to obtain the un-stimulated intensities. Five seconds of post-stimulation recording are performed to examine the relaxation to the resting state.
(§6) Data are analyzed and reported as normalized ratios of background-subtracted emission intensities measured in the 460 nm and 580 nm channels. Background intensities are then subtracted from each assay channel. Background intensities are obtained by measuring the emission intensities during the same time periods from identically treated assay wells in which there are no cells. The response as a function of time is then reported as the ratios obtained using the following formula: […]
(§7) The data is further reduced by calculating the initial (Ri) and final (Rf) ratios. These are the average ratio values during part or all of the pre-stimulation period, and during sample points during the stimulation period. The response to the stimulus ρ=Rf/Ri is then calculated.
(§8) Control responses are obtained by performing assays in the presence of a compound with the desired properties (positive control) and in the absence of pharmacological agents (negative control). Responses to the negative (N) and positive (P) controls are calculated as above. The activity A of the assay well relative to positive and negative controls is defined as: […]
Target sequence in this assay (Q9Y5Y9 whole entry): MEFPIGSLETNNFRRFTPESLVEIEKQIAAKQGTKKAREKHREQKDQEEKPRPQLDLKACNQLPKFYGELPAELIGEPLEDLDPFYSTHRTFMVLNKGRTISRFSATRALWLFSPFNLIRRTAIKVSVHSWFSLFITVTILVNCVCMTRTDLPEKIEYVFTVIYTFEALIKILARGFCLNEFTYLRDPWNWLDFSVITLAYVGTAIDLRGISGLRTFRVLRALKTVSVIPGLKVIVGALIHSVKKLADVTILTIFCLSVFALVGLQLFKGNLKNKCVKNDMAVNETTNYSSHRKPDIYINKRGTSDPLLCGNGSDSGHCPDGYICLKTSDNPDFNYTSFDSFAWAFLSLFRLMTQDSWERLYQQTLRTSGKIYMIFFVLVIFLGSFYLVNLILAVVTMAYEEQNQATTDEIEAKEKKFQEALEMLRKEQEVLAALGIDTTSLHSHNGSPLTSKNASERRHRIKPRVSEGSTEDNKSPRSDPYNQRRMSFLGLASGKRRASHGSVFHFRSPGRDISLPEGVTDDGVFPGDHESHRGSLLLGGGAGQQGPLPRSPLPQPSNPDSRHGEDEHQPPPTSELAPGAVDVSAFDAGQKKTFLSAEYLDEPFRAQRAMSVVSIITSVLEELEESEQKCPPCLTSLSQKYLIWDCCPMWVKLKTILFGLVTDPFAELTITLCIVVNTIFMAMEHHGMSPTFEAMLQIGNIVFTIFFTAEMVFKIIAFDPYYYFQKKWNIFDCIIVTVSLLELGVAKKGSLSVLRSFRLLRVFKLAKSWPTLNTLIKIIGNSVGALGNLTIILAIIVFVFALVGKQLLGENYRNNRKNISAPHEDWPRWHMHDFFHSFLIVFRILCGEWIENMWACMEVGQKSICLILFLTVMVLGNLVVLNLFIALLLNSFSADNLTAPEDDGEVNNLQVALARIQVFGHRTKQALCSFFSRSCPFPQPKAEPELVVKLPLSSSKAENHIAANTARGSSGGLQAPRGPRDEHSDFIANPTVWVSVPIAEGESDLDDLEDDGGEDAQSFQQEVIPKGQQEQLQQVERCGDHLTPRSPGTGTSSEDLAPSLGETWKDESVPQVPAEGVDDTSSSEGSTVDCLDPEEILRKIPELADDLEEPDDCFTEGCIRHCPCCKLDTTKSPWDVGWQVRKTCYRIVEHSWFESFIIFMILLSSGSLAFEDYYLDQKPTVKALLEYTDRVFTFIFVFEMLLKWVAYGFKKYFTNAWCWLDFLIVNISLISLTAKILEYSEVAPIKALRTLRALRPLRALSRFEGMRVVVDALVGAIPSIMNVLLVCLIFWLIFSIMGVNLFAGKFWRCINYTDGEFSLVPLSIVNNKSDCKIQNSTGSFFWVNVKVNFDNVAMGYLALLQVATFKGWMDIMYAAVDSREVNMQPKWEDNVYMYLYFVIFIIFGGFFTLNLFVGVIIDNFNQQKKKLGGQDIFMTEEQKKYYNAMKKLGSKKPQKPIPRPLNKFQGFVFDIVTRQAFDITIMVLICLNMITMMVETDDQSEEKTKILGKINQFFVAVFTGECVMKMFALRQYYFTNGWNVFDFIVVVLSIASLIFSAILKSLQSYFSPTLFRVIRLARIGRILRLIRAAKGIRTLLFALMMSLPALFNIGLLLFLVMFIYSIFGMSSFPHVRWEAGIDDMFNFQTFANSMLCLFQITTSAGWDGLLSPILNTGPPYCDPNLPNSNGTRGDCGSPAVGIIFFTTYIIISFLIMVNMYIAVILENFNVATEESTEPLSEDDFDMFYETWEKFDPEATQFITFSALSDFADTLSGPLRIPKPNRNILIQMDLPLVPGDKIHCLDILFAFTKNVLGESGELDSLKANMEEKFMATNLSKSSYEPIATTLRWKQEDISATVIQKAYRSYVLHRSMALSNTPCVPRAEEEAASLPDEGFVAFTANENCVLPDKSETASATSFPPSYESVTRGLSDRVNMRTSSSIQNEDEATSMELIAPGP

The target in the next assay is NaV 1.7 channel (Homo sapiens, UniProt Q15858). The assay is described as above. The class given is cell-based. Particulars: activity against NaV 1.7 channel. The procedure:
as §1, §2, §3, §4, §5, §6, §7, §8

For assay [2], the target named is T2, NaV1.3 (Homo sapiens, UniProt Q9NY46). Put plainly: NaV inhibition, VIPR optical membrane potential assay with electrical stimulation. The class given is cell-based. Particulars: activity against NaV 1.3 channel. Further details: expressed in transfected cells; host or cells: HEK293. Here is the method: as §1, §2, §3
HEK293 cells stably expressing NaV 1.3 are plated into 96-well microtiter plates. After an appropriate incubation period, the cells are stained with the voltage sensitive dyes CC2-DMPE/DiSBAC2(3) as follows.
10 mM CC2-DMPE is vortexed with an equivalent volume of 10% pluronic, followed by vortexing in required amount of HBSS containing 10 mM HEPES. Each cell plate will require 5 mL of 2×CC2-DMPE. 50 μL of 2×CC2-DMPE is to wells containing washed cells, resulting in a 10 μM final staining concentration. The cells are stained for 30 minutes in the dark at RT.
The 2×DiSBAC2(3) solution can be used to solvate compound plates. Note that compound plates are made at 2× drug concentration. Wash stained plate again, leaving residual volume of 50 μL. Add 50 uL/well of the 2×DiSBAC2(3) w/ABSC1. Stain for 30 minutes in the dark at RT.
as §4, §5, §6

The next assay concerns the target NaV1.6 (Homo sapiens, UniProt Q9UQD0). Particulars: read-out: TTX IC50; cited from earlier work.
Assay [3] concerns the target T2, NaV1.3. The conditions noted are these: read-out: TTX IC50; cited from earlier work.
The next assay has as its target NaV1.9 (Homo sapiens, UniProt Q9UI33). Particulars: read-out: TTX IC50; cited from earlier work.
In assay [4] the target is T1, NaV1.8. Particulars: read-out: TTX IC50; cited from earlier work.
Target sequence in this assay (Q9Y5Y9 whole entry, looked up): as the sequence (Q9Y5Y9 whole entry) above

NaV 1.7 channel, sequence (Q15858 whole entry): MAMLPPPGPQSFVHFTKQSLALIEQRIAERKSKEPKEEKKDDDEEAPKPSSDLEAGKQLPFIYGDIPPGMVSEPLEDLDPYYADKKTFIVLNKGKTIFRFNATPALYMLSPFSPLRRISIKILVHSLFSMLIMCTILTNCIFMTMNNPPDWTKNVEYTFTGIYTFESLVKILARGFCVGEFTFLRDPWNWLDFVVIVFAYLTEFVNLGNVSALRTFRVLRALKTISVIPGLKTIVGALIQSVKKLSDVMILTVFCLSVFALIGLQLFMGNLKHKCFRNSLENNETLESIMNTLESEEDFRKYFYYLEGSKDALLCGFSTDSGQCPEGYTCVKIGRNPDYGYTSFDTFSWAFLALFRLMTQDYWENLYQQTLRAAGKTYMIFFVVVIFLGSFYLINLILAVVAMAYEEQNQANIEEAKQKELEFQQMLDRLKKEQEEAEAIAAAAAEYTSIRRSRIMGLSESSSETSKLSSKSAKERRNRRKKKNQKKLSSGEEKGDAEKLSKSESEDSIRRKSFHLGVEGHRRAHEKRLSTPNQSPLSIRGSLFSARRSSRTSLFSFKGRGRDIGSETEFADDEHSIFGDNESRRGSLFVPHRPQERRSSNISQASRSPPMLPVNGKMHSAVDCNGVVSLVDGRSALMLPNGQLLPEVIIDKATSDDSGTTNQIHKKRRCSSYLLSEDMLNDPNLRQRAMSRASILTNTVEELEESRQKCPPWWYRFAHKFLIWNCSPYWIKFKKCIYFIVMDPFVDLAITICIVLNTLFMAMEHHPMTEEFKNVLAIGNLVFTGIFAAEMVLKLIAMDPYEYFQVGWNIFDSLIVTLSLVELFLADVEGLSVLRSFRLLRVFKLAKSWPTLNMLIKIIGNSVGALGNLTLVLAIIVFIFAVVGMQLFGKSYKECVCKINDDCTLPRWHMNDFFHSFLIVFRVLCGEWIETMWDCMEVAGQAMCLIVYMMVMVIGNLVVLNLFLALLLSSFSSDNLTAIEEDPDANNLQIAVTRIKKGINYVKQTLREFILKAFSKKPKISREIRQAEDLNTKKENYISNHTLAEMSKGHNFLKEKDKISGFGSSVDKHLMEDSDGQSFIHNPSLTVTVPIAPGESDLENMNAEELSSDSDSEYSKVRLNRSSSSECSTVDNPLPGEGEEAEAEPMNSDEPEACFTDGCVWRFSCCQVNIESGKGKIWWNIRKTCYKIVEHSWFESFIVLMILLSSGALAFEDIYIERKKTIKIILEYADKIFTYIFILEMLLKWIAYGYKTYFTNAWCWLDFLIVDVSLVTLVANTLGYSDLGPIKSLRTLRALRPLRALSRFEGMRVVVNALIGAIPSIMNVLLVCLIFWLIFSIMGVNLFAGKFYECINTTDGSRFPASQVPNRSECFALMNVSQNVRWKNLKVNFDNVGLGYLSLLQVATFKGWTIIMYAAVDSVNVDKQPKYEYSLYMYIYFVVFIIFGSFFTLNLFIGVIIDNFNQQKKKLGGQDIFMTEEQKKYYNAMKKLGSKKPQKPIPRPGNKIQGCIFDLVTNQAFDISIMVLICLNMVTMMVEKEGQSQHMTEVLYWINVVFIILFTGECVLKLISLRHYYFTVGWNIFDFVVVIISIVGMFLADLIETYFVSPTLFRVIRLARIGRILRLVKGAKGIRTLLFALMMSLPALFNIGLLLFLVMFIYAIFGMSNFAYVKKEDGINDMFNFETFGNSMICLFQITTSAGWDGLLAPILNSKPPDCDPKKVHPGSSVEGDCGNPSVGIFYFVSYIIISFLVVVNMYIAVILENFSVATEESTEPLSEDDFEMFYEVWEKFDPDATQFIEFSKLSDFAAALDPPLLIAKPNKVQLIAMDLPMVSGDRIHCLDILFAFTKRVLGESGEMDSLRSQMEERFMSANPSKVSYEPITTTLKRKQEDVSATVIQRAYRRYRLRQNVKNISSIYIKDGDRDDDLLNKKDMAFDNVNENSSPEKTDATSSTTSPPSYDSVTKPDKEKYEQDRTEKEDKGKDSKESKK

In the case of `Cc1ncccc1Oc1cc(C(C)(C)C)ccc1C(=O)Nc1cncc(S(N)(=O)=O)c1` [Compound 1], the concentration for half-maximal inhibition (IC50) (as a rule, the concentration that inhibits the measured activity by half) at NaV1.8 [1] is under 2 µM; on NaV 1.7 channel, over 20 µM; at NaV1.3 [2], over 20 µM.
For the molecule `CC(C)(C)c1ccc(C(=O)Nc2cncc(S(N)(=O)=O)c2)c(Oc2ccc(F)cc2Cl)c1` [Compound 2], the results for the IC50 on NaV1.8 [1], on NaV 1.7 channel and at NaV1.3 [2] were under 2 µM, 2 to 10 µM and 2 to 10 µM, respectively.
On to `CC(C)(C)c1ccc(C(=O)Nc2cncc(S(N)(=O)=O)c2)c(Oc2ccc(C(F)(F)F)nc2)c1` [Compound 3], for which the IC50 was under 2 µM at NaV1.8 [1], 2 to 10 µM at NaV 1.7 channel and 10 to 20 µM at NaV1.3 [2].
Consider `CC(C)(C)c1ccc(C(=O)Nc2cncc(S(N)(=O)=O)c2)c(Oc2cccc(C(F)(F)F)n2)c1` [Compound 4], for which the concentration for half-maximal inhibition (IC50) at NaV1.8 [1] was under 2 µM; on NaV 1.7 channel, over 20 µM; at NaV1.3 [2], 10 to 20 µM.
The corresponding values for `NS(=O)(=O)c1cncc(NC(=O)c2ccc(C(F)(F)F)cc2Oc2ccc(C(F)(F)F)nc2)c1` [Compound 5, N-(5-Sulfamoylpyridin-3-yl)-4-(trifluoromethyl)-2-(6-(trifluoromethyl)pyridin-3-yloxy)benzamide] are 2 to 10 µM, over 20 µM and over 20 µM.
The matching figures for `CC(C)(C)c1ccc(C(=O)Nc2cncc(S(C)(=O)=O)c2)c(Oc2ccc(C(F)(F)F)nc2)c1` [Compound 6, 4-tert-Butyl-N-(5-(methylsulfonyl)pyridin-3-yl)-2-(6-(trifluoromethyl)pyridin-3-yloxy)benzamide]: 2 to 10 µM, over 20 µM and 10 to 20 µM.
The matching figures for `CC(C)(C)c1ccc(C(=O)Nc2cncc(S(C)(=O)=O)c2)c(Oc2ccc(F)cc2Cl)c1` [Compound 7]: under 2 µM, 10 to 20 µM and 10 to 20 µM.
As for `CS(=O)(=O)c1cncc(NC(=O)c2ccc(C(F)(F)F)cc2Oc2ccc(C(F)(F)F)nc2)c1` [Compound 8], the figures for the IC50 on NaV1.8 [1], at NaV 1.7 channel and on NaV1.3 [2] were 2 to 10 µM, over 20 µM and over 20 µM, respectively.
With `CC(C)(C)c1ccc(C(=O)Nc2cncc(S(C)(=O)=O)c2)c(Oc2cccc(C(F)(F)F)n2)c1` [Compound 9], the IC50 lay in the range of 2 to 10 µM on NaV1.8 [1], 10 to 20 µM on NaV 1.7 channel and 10 to 20 µM on NaV1.3 [2].
Take `NC1=N[C@H](O)[C@H]2[C@H]3O[C@]4(O)O[C@@H]([C@@H](O)[C@@]2(N1)[C@@H]4O)[C@]3(O)CO` [TTX, tetrodotoxin]: the IC50 on NaV1.6 is 0.006 µM; at NaV1.3 [3] it was 0.015 µM; on NaV1.9, 1 µM; on NaV1.8 [4] it was over 50 µM.
